Data on three compounds can be found in patent publication US20120164230A1, “Soluble Nanoparticles as Delivery Systems for Prodrugs” (priority 2007, published 2012).

Data set [1] has as its system NTera-2 cells. In words: MTT cell proliferation / cytotoxicity assay. It is filed as cell-based, human. On the procedure:
In order to evaluate the feasibility of this method for delivering a toxic dose of platinum, cytotoxicity assays of SWNT-Pt(IV) were conducted using the testicular carcinoma cell line NTera-2. Example 3 below describes these experiments, in which the MTT assay was used to determine cell viability following treatment for four days with either the free platinum(IV) complex 2 or with the SWNT-tethered analog (FIG. 2). Compared to cis-[Pt(NH3)2Cl2] (IC50=0.05 μM) the cytotoxicity of the asymmetrically substituted platinum(IV) compound 2 is insignificant (IC50>>0.5 mM). […] Without wishing to be bound to any particular theory, it is thought that this increase is due to the two-fold increase in uptake of Pt relative to free cisplatin.
Cell Culture. Cells from the human testicular cancer line NTera-2 were incubated at 37° C. in 5% CO2 and grown in DMEM (Dulbecco's Modified Eagle's Medium) medium supplemented with 10% fetal bovine serum and 1% penicillin/streptomycin. Cells were passaged every 3 to 4 days and reseeded from frozen stocks after reaching passage number 20.
Cell Proliferation Assay. Ntera-2cells were seeded into 96 well plates at a confluence of 1000 cells per well and incubated for 24 h. The cells were then treated with either cisplatin, compound 1, compound 2, or SWNT-Pt(IV) and incubated for 96 h. The cells were then treated with 20 μL of 3-(4,5-dimethylthiazol-2-yl)-2,5-diphenyltetrazolium bromide (MTT) (5 mg/mL in PBS) and incubated for 5 h. The medium was removed, the cells were lysed with 100 μL of DMSO, and the absorbance of the purple formazan was recorded at 550 nm. The results are presented in FIG. 2, FIG. 7, FIG. 8, and FIG. 9. […] (cisplatin).

Data set [2] deals with NTera-2 cells. In words: Platinum concentration of cell extracts (cytosolic and nuclear fractions) by AAS. It is filed as cell-based, human. The conditions noted are these: 1 μM platinum, 3 h incubation. On the procedure:
In order to investigate the mechanism by which the SWNTs transport Pt(IV) compounds into cells and release them once inside we devised a strategy to track their intracellular location.
Cell Extract Preparation and Analysis. NTera-2 cells were grown to >90% confluence in 175 cm^2 flasks. These cells were treated separately with 1 μM concentrations of cisplatin, c,c,t-[Pt(NH3)2Cl2(OEt)(O2CCH2CH2CO2H)], and SWNT-Pt(IV) and subsequently incubated for three h at 37° C. The cells were washed thrice with PBS and released by trypsinization into PBS. The cell solutions were centrifuged at 800×g for 10 min and the cell pellets resuspended in 100 μL of ice-cold lysis buffer (1.0 mM DTT (dithiothreitol), 1.0 mM PMSF (phenylmethanesulphonylfluoride), 10 mM KCl, 10 mM MgCl2, pH 7.5) for 15 min. The cells were centrifuged again and the pellets resuspended in 40 μL of ice-cold lysis buffer. The cell membranes were lysed by 10 strokes of a 28 ga. syringe. The resulting suspension was centrifuged at 11,000×g for 20 min and the supernatant was collected as the cytosolic fraction of the cells. […] The lysate was shaken at 1000 rpm for 45 min at […] and then centrifuged at 20,000×g for 10 min at 4° C. The supernatant was collected as the nuclear fraction. The platinum concentration of all fractions was determined by AAS. The protein concentration for each fraction was determined by the bicinchoninic acid (BCA) assay and the total platinum concentration was expressed as nanograms of platinum per microgram of protein (Table 1).

A short description of data set [3]: Cyclic voltammetry, reduction potential. It is filed as physicochemical. The following applies: vs Ag/AgCl; for reduction potential (reduction peak) extrapolated to 0.0 mV s^-1 scan rate: pH 6.0, 0.1 M KCl phosphate buffer; for reduction potential extrapolated to 0.0 mV s^-1 scan rate: pH 7.4, 0.1 M KCl phosphate buffer. On the procedure: Each platinum complex was dissolved to a final concentration of 2.0 mM in 0.1 M aqueous KCl buffered with phosphate to either pH 6.0 or 7.4. Cyclic voltammetric (CV) measurements were performed with a model 263 EG&G Princeton Applied Research electrochemical analyzer at varying scan rates of 20-100 mV s^−1. The solvent was degassed by several freeze-pump-thaw cycles and measurements were taken under an atmosphere of argon. The working electrode was made of glassy carbon, the reference electrode was Ag/AgCl, and the counter electrode was a platinum wire. Reported potentials are extrapolated to 0.0 mV s^−1 scan rates to account for the irreversible behavior of the reduction processes.^7

One may read the IC50 as the point on the concentration scale where inhibition reaches its midpoint. A low value points to inhibition by little substance. On to cis-[Pt(NH3)2Cl2] [reference compound], for which, in the data set on NTera-2 cells [1], inhibition was half-maximal at 50 nM (IC50) and the “cytotoxicity (in words)” value is recorded as “significantly more toxic”. In the data set on NTera-2 cells [2], the “Platinum concentration of cell extracts, Cytosolic” value is recorded as 11 Pt(ng)/protein(mg) and the “Platinum concentration of cell extracts, Nuclear” value was 14 Pt(ng)/protein(mg).
`CC[O][Pt]([NH2])([NH2])([OH])([Cl])[Cl]` [Compound 1, c,c,t-[Pt(NH3)2Cl2(OH)(OEt)]]: the “cytotoxicity (in words)” value in the data set with NTera-2 cells [1] is reported as “only toxic to cells in micromolar concentrations”. In data set [3], the “reduction potential (reduction peak) extrapolated to 0.0 mV s^-1 scan rate” value is reported as −0.499 V and the “reduction potential extrapolated to 0.0 mV s^-1 scan rate” value is given as −0.604 V.
With `CC[O][Pt]([NH2])([NH2])([Cl])([Cl])[O]C(=O)CCC(=O)O` [Compound 2, c,c,t-[Pt(NH3)2Cl2(OEt)(O2CCH2CH2CO2H)]], in the data set on NTera-2 cells [1], the IC50 is above 500 nM and the “cytotoxicity (in words)” value is “nearly nontoxic”. In the data set with NTera-2 cells [2], the “Platinum concentration of cell extracts, Cytosolic” value is given as 3 Pt(ng)/protein(mg) and the “Platinum concentration of cell extracts, Nuclear” value is given as 6 Pt(ng)/protein(mg). In addition, in data set [3], the “reduction potential (reduction peak) extrapolated to 0.0 mV s^-1 scan rate” value is −0.623 V and the “reduction potential extrapolated to 0.0 mV s^-1 scan rate” value is −0.724 V.
